In patent publication US20220409578A1, “FUNCTIONALIZED 1,3-BENZENE DIOLS AND THEIR METHOD OF USE FOR THE TREATMENT OF RADIATION DERMATITIS AND OTHER SKIN DISORDERS” (KANNALIFE SCIENCES, INC., priority 2019, published 2022):

Assays:
[1] = test system: human epidermal keratinocytes; assay type: cell-based; details: 24 h
Description: Normal human epidermal keratinocytes cultures were utilized to measure the release of proinflammatory cytokines and chemokines. Primary epidermal keratinocytes from neonatal donors were used from human origin and purchased from Thermo-Fisher (Cat No. A13401). […] Cells were cultured until the second passage and then acclimated for 48 hours more before UV-B irradiation. Dosing procedures and cell groups were identified using appropriate cell culture 24-well plates. The cell culture incubator was set at 5% v/v CO2 with temperature and humidity maintained at 36-38° C. and 40-70%, respectively. The test and control substances were administered to HKGS-depleted medium in triplicates. A fixed 5 μL/well from 100× stock dose volume was administered to 500 μL of media to each cell culture well on Day 3 and pre-incubated for 6 hours and then post-UVB incubated for 18 hours. The same procedure was utilized to determine non-toxic concentrations of 1,3-benzene diols after 24 hours of treatment. Cell Viability assays were conducted using MTS reduction assays (Promega) diluted 1:5 in DMEM+10% FBS media as specified by the manufacturer. Absorbance was measured at 490 nm using plate reader and cell viability was calculated as a percent of control. This assay was done along with all culture systems that were utilized to study cytokine release. […]

[2] = test system: human 3D skin-like EPIDERM; details: 1 h
[3] = Antioxidant capacity (ABTS/metmyoglobin assay); assay type: biochemical; details: OD 750 nm, 15 minutes after hydrogen peroxide
Description: Antioxidant capacity: The purpose of this study was to evaluate the overall antioxidant capacity of KLS-13022 for the ability to inhibit the oxidation of ABTS. (2,2′-Azino-di-[3-ethylbenzthiazoline sulphonate]) to ABTS.^+ by metmyoglobin. Ascorbic acid (Vitamin C) was used as positive antioxidant control in the assay. The testing involved the suppression of optical density (OD) at 750 nm to a degree, which is proportional to an effective oxidation inhibition. Neat solutions were prepared for materials formulated in HPLC-grade water (ascorbic acid) or 200-proof ethanol (KLS-13022). Serial dilutions were prepared for each material and mixed with metmyoglobin enzyme in assay buffer solution. All samples were compared to vehicle-only treated samples used as negative oxidation inhibition. Optical density changes at 750 nm were evaluated 15 minutes after addition of hydrogen peroxide to each sample. Average absorbance was calculated and plotted for each sample concentration. Effective antioxidant inhibition activity based on the change of absorbance of blank (vehicle-only) sample (no material added). […] The Antioxidant assay kit was obtained from Cayman Chemical Co. (Ann Arbor, Mich.). The assay consisted in the evaluation of the overall antioxidant capacity of test materials for the ability to inhibit the oxidation of ABTS. to ABTS.^+ by metmyoglobin. […]

IL-8 = IL-8 release, nickel-induced allergy in human dermal microvascular endothelial cells (ELISA); assay type: cell-based; details: co-treatment with NiSO4, HDMECs
Description: Dermal Microvascular endothelial cells of human origin were cultured in vitro using standard conditions (37° C., 95% v/v air, 5% v/v CO2). Human cells were selected as relevant to cell types within skin tissues for this development program. Cell culture methods are commonly used in non-clinical studies conducted on pharmaceutical products. […] Cells were cultured until the third and fourth passage and then acclimated for 24 hours before Nickel induction and dosing procedures. Cell treatment groups were identified using appropriate 96-well plates. The test and control articles were administered to medium containing 1 mM NiSO4 in triplicates. The negative control group received vehicle-only (0.1% v/v final) dose. A fixed 0.1 μL/well from 1000× stock dose volume was administered to 100 μL of media to each cell culture well on Day 2 and incubated for 6 hours at 37 degrees. These cell cultures were also utilized to determine the concentrations of test agent that were non-toxic after 24 hours of incubation.
Assay for Interleukin-8: Test material was applied in vitro for the ability to inhibit pro-inflammatory (IL-8) cytokine secretion by cultured HDMECs co-treated with Nickel (NiSO4). Clobetasol propionate was tested as positive control material for anti-inflammatory activity. The pro-inflammatory cytokine (IL-8) was quantified by enzyme-linked immunosorbent assay (ELISA) after inflammatory induction and incubation with test and control materials. Interleukin-8 levels in cell culture medium are markers of inflammation signaling by endothelial cells present in skin microvascular tissue in response to irritation. Interleukin-8 (IL-8) levels were assessed using BD Biosciences OptEIA™ Human IL-8 ELISA Set kit (Cat. No. 555244) and Reagent Set B (Cat. No. 550534) according to the manufacture's specifications. Absorbance was measured at 450 nm using plate reader and interleukin-8 levels were calculated from a standard curve.

## C=C(C)[C@@H]1CCC(C)=C[C@H]1c1c(O)cc(CC2CN(C(=O)OCC)C2)cc1O [KLS-13022, ethyl 3-(3,5-dihydroxy-4-((1R,6R)-3-methyl-6-(prop-1-en-2-yl)cyclohex-2-enyl)benzyl)azetidine-1-carboxylate]
[1]
  non-toxic concentration range: ≤ 10 µM
[2]
  tissue viability: ≥ 50%
[3]
  EC50: 25.6 µM
IL-8; Homo sapiens, Endothelial cell, read-out: IC50 of IL-8 inhibition
  IC50: 0.3 µM
IL-8
  maximum IL-8 inhibition: 78%
